Experimental data as given in paper PMC3944524, “Antimicrobial Activity of the Marine Alkaloids, Clathrodin and Oroidin, and Their Synthetic Analogues” (Marine Drugs, 2014).
In brackets after ≈: the same amount, converted by molar mass.

Experiments:
[1] = system: Candida albicans (ATCC 90028); test: Broth microdilution antifungal assay, Candida albicans; type: cell-based
Procedure: Clinical control strains of Enterococcus faecalis (Gram-positive, ATCC 29212), Staphylococcus aureus (Gram-positive, ATCC 25923), Escherichia coli (Gram-negative, ATCC 25922) and a fungal strain, Candida albicans (ATCC 90028), were obtained from Microbiologics Inc. (St. Cloud, MN, USA) and used for the antimicrobial screening. Bacterial strains were grown on Mueller Hinton II agar (MHA, Becton Dickinson, Franklin Lakes, NJ, USA) slants and Mueller Hinton II broth (MHB, Becton Dickinson, Franklin Lakes, NJ, USA) and the Candida strain on Sabouraud dextrose agar (SDA, Becton Dickinson, Franklin Lakes, NJ, USA) plates. Media were prepared in MilliQ water, according to the manufacturer’s instructions, and autoclaved at 121 °C for 15 min. Prior to the assay, bacterial suspensions were prepared in MHB from fresh slant cultures and incubated at 37 °C for 16–20 h at 100 rpm. The Candida strain was grown on SDA plates at 28 °C for 18–24 h and suspended into sterile 0.9% saline for the assay.
Antimicrobial assays were performed by the broth microdilution method following the guidelines of the Clinical and Laboratory Standards Institute (CLSI) and European Committee on Antimicrobial Susceptibility Testing (EUCAST). Bacterial suspensions were prepared as described above and diluted with MHB to obtain a final inoculum of 5 × 10^5 colony-forming units (CFU)/milliliters in the assay (determined on the basis of absorbance values at 620 nm previously calibrated against plate counts). The Candida suspension was prepared in sterile 0.9% saline solution, and the suspension was diluted in RPMI-1640 media (with L-glutamine, without NaHCO3 and supplemented with 2% glucose and 0.165 M MOPS, buffered to pH 7; Lonza, Basel, Switzerland) to yield a final inoculum of 2.5 × 10^3 CFU/mL in the assay. Assays were carried out in clear 96-well microtiter plates and initiated by dispensing an equal volume of microbial suspension and sample solution diluted into the assay medium. The plates were incubated for 24 h at 37 °C (for Candida, the incubation was at 28 °C for 48 h) with agitation. Absorbance was measured at 620 nm with a plate reader at 0, 4 and 24 h with the bacteria and at 0, 24 and 48 h with Candida. The antimicrobial activity of the samples was calculated from the absorbance values by comparing to untreated controls and expressed as the percentage inhibition of growth. Reference antibiotics were used as positive controls on every assay plate (see Figure 2 for details). […] MIC50 values were determined from the dose-response results by sigmoidal curve fitting with Origin software (OriginLab, Corp., Wellesley Hills, MA, USA).

[2] = system: Enterococcus faecalis (ATCC 29212); test: Broth microdilution antimicrobial assay, Enterococcus faecalis; type: cell-based; conditions: for inhibition at 50 µM / inhibition of growth, primary screen: n = 3, hit threshold >80%, 50 µM; for inhibition at 50 µM: read-out: inhibition of growth, primary screen
Procedure: (§1) Clinical control strains of Enterococcus faecalis (Gram-positive, ATCC 29212), Staphylococcus aureus (Gram-positive, ATCC 25923), Escherichia coli (Gram-negative, ATCC 25922) and a fungal strain, Candida albicans (ATCC 90028), were obtained from Microbiologics Inc. (St. Cloud, MN, USA) and used for the antimicrobial screening. Bacterial strains were grown on Mueller Hinton II agar (MHA, Becton Dickinson, Franklin Lakes, NJ, USA) […] Mueller Hinton II broth (MHB, Becton Dickinson, Franklin Lakes, NJ, USA) and the Candida strain on Sabouraud dextrose agar (SDA, Becton Dickinson, Franklin Lakes, NJ, USA) plates. Media were prepared in MilliQ water, according to the manufacturer's instructions, and autoclaved at 121 °C for 15 min. […] The Candida strain was grown on SDA plates at 28 °C for 18-24 h and suspended into sterile 0.9% saline for the assay. Antimicrobial assays were performed by the broth microdilution method following the guidelines of the Clinical and Laboratory Standards Institute (CLSI) and European Committee on Antimicrobial Susceptibility Testing (EUCAST). […] The Candida suspension was prepared in sterile 0.9% saline solution, and the suspension was diluted in RPMI-1640 media (with L-glutamine, without NaHCO3 and supplemented with 2% glucose and 0.165 M MOPS, buffered to pH 7; Lonza, Basel, Switzerland) to yield a final inoculum of 2.5 × 10^3 CFU/mL in the assay. Assays were carried out in clear 96-well microtiter plates and initiated by dispensing an equal volume of microbial suspension and sample solution diluted into the assay medium. The plates were incubated for 24 h at 37 °C (for Candida, the incubation was at 28 °C for 48 h) with agitation. […] The antimicrobial activity of the samples was calculated from the absorbance values by comparing to untreated controls and expressed as the percentage inhibition of growth. Reference antibiotics were used as positive controls on every assay plate (see Figure 2 for details). […] MIC50 values were determined from the dose-response results by sigmoidal curve fitting with Origin software (OriginLab, Corp., Wellesley Hills, MA, USA).

[3] = system: Escherichia coli (ATCC 25922); test: Broth microdilution antimicrobial assay, Escherichia coli; type: cell-based
Procedure: as §1

[4] = system: Staphylococcus aureus (ATCC 25923); test: Broth microdilution antimicrobial assay, Staphylococcus aureus; type: cell-based; conditions: for inhibition at 50 µM / MIC90 / MIC50: Staphylococcus aureus; for inhibition at 50 µM / inhibition of growth, primary screen: n = 3, hit threshold >80%, 50 µM; for inhibition at 50 µM: read-out: inhibition of growth, primary screen; for SI (selectivity index): S. aureus MIC50 vs Huh-7 cytotoxicity IC50; for MIC50: sigmoidal curve fitting
Procedure: as §1

[5] = Mammalian cell cytotoxicity, ATP assay (CellTiter-Glo); type: cell-based, human; conditions: human, Huh-7 cells, ATP assay, 24 h exposure, average of two dose-response experiments
Procedure: (§2) Huh-7 cells (originating from human hepatocellular carcinoma) were kindly provided by Prof. Ralf Bartenschlager (University of Heidelberg, Heidelberg, Germany). […] The cells were incubated at 37 °C in a humidified atmosphere with 5% CO2. The effect of the most promising compounds on the metabolic activity of Huh-7 hepatocytes was assessed by intracellular ATP quantitation (Promega’s CellTiter-Glo Cell Viability Assay, Madison, WI, USA). In brief, cells were seeded at 20,000 cells/well on white-walled 96-well microplates (ViewPlate, PerkinElmer Inc., Wellesley, MA, USA) and incubated at 37 °C, 5% CO2 and 95% humidity overnight and then exposed to the compounds for 24 h. Following the exposure, cells were washed with 100 µL PBS, and 50 µL of fresh assay media and 50 µL of the CellTiter-Glo reagent were added into the wells. After 2 min of shaking and 10 min incubation at rt, luminometric signal was measured using a Varioskan Flash plate reader (Thermo Fisher Scientific, Vantaa, Finland). […] The IC50 values were calculated by fitting the data into sigmoidal dose-response curves with the Origin software.

Huh-7 cells = test: as above; type: cell-based, human
Procedure: as §2

[6] = Enterococcus faecalis, ATCC29212, 24 h
[7] = 50 µM, 48 h, n = 3, hit threshold >80%
[8] = 50 µM, 24 h, n = 3, hit threshold >80%
[9] = ATCC25923, S. aureus ATCC 25923, 24 h

**Q.** Which inhibition at 50 µM ([1]; Candida albicans, ATCC90028, 50 µM, 48 h, n = 3, hit threshold >80%, read-out: inhibition of growth, primary screen) does the source give for `Nc1nc(/C=C/CNC(=O)c2ccc[nH]2)c[nH]1` [Compound 2a, (E)-N-(3-(2-amino-1H-imidazol-4-yl)allyl)-1H-pyrrole-2-carboxamide] here?
**A.** < 80%

**Q.** And the inhibition at 50 µM [2, 6]?
**A.** < 80%

**Q.** What about the inhibition at 50 µM ([3]; Escherichia coli, ATCC25922, 50 µM, 24 h, n = 3, hit threshold >80%, read-out: inhibition of growth, primary screen) of the same compound?
**A.** < 80%

**Q.** What about the inhibition at 50 µM ([4]; ATCC25923, 24 h) of the same compound?
**A.** < 80%

**Q.** With `Nc1nc(/C=C/CNC(=O)c2cc(Br)c(Br)[nH]2)c[nH]1` [Compound 2b, (E)-N-(3-(2-amino-1H-imidazol-4-yl)allyl)-4,5-dibromo-1H-pyrrole-2-carboxamide] as the compound, how does the “inhibition of growth, primary screen” value [1, 7] read?
**A.** inactive

**Q.** What about the IC50 at 24 h [5] of the same compound?
**A.** > 100 µM

**Q.** And the inhibition at 50 µM [2, 6]?
**A.** ~50%

**Q.** What about the “inhibition of growth, primary screen” value [3, 8] of the same compound?
**A.** inactive

**Q.** What about the “SI (selectivity index)” value [4] of the same compound?
**A.** >3.3

**Q.** And the MIC90 ([4]; ATCC25923, 24 h)?
**A.** 100 µM

**Q.** And the inhibition at 50 µM ([4]; ATCC25923, 24 h)?
**A.** > 90%

**Q.** And the MIC50 [4, 9]?
**A.** 30.6 µM (≈ 11.9 µg/mL)

**Q.** Which IC50 at 24 h [5] does the source give for `CC(C)(C)OC(=O)n1cc(-c2cccc(NC(=O)c3cc4cc(Cl)ccc4[nH]3)c2)nc1N` [Compound 5i, tert-Butyl 2-amino-4-(3-(5-chloro-1H-indole-2-carboxamido)phenyl)-1H-imidazole-1-carboxylate] here?
**A.** > 100 µM

**Q.** And the “cytotoxicity at highest tested concentration” value (Huh-7 cells; 100 µM)?
**A.** non-cytotoxicity

**Q.** What about the melting point of the same compound?
**A.** 188 to 190 °C

**Q.** What about the “SI (selectivity index)” value [4] of the same compound?
**A.** >8.6

**Q.** And the MIC90 ([4]; ATCC25923, 24 h)?
**A.** 75 µM

**Q.** And the MIC50 [4, 9]?
**A.** 11.7 µM (≈ 5.29 µg/mL)

**Q.** What does the source list for `Nc1nc(-c2cccc(NC(=O)c3c[nH]c4ccccc34)c2)c[nH]1` [Compound 6e]?
**A.** inhibition of growth, primary screen [1, 7]: inactive; inhibition of growth, primary screen ([2]; 24 h): inactive; inhibition of growth, primary screen [3, 8]: inactive; inhibition of growth, primary screen ([4]; 24 h): inactive

**Q.** With `Cl.Nc1nc(-c2cccc(NC(=O)c3cc4cc(OCc5ccccc5)ccc4[nH]3)c2)c[nH]1` [Compound 6h, 2-Amino-4-(3-(5-(benzyloxy)-1H-indole-2-carboxamido)phenyl)-1H-imidazol-3-ium chloride] as the compound, how does the “inhibition of growth, primary screen” value [1, 7] read?
**A.** no activity

**Q.** What about the IC50 at 24 h [5] of the same compound?
**A.** 21.2 µM

**Q.** What about the melting point of the same compound?
**A.** 175 to 178 °C

**Q.** And the “inhibition of growth, primary screen” value ([2]; 24 h)?
**A.** active

**Q.** What about the “SI (selectivity index)” value ([2]; E. faecalis MIC50 vs Huh-7 cytotoxicity IC50) of the same compound?
**A.** 2.7

**Q.** What about the MIC90 [2, 6] of the same compound?
**A.** 12.5 µM

**Q.** What about the MIC90 ([2]; Enterococcus faecalis, ATCC29212, E. faecalis ATCC 29212, 24 h) of the same compound?
**A.** 5.7 µg/mL

**Q.** And the MIC50 ([2]; Enterococcus faecalis, ATCC29212, E. faecalis ATCC 29212, 24 h, sigmoidal curve fitting)?
**A.** 8 µM

**Q.** And the “inhibition of growth, primary screen” value [3, 8]?
**A.** active

**Q.** What about the “SI (selectivity index)” value ([3]; E. coli MIC50 vs Huh-7 cytotoxicity IC50) of the same compound?
**A.** 0.7

**Q.** And the MIC90 ([3]; Escherichia coli, ATCC25922, 24 h)?
**A.** 50 µM

**Q.** And the MIC50 ([3]; Escherichia coli, ATCC25922, E. coli ATCC 25922, 24 h, sigmoidal curve fitting)?
**A.** 30.4 µM

**Q.** And the “inhibition of growth, primary screen” value ([4]; 24 h)?
**A.** active

**Q.** What about the “SI (selectivity index)” value [4] of the same compound?
**A.** 2.9

**Q.** What about the MIC90 ([4]; ATCC25923, 24 h) of the same compound?
**A.** 12.5 µM

**Q.** What about the MIC90 [4, 9] of the same compound?
**A.** 5.7 µg/mL

**Q.** What about the MIC50 [4, 9] of the same compound?
**A.** 7.3 µM

**Q.** Which MIC90 ([1]; Candida albicans, ATCC90028, 48 h) does the source give for `C[C@@H]1[C@H](O)[C@@H](C)/C=C/C=C/C=C/C=C/C=C/C=C/C=C/[C@H](O[C@@H]2O[C@H](C)[C@@H](O)[C@H](N)[C@@H]2O)C[C@@H]2O[C@](O)(C[C@@H](O)C[C@@H](O)[C@H](O)CC[C@@H](O)C[C@@H](O)CC(=O)O[C@H]1C)C[C@H](O)[C@H]2C(=O)O` [amphotericin B, reference compound] here?
**A.** 0.5 µM

**Q.** And the MIC90 ([1]; Candida albicans, ATCC90028, C. albicans ATCC 90028, 48 h)?
**A.** 0.5 µg/mL

**Q.** For “Polymyxin-B sulfate [reference compound]”, which average cytotoxicity (Huh-7 cells; 15,000 IU/mL, positive control, 24 h) is on record?
**A.** 88%
